One block for each compound: values may come before it. The source made the active and inactive calls. The calls are words filed in the database; no cut-off is given here.
What was measured:
[1] = 1-Octanol/aqueous buffer distribution coefficient, log D of the compound at pH 7.4 by HPLC analysis; type: physicochemical
[2] = target: T1, Glutamate NMDA receptor; GRIN1/GRIN2A (Homo sapiens, UniProt Q05586+Q12879); experiment: Positive allosteric modulator activity at GluN1a/GluN2A (unknown origin) expressed in CHO cells assessed as maximum potentiation at 30 uM in presence of glutamate by Ca2+ influx assay relative to control; type: cell-based
[3] = Clearance in human liver microsomes at 1 uM in presence of NADPH measured for 15 to 30 min by LC-MS/MS analysis; type: ADME, Microsome; settings: time 15-30 min, read-out: CLH
[4] = Clearance in rat liver microsomes at 1 uM in presence of NADPH measured for 15 to 30 min by LC-MS/MS analysis; type: ADME, Microsome; settings: time 15-30 min, read-out: CLH
[5] = target: T2, Glutamate receptor 2 (Homo sapiens, UniProt P42262); experiment: Displacement of [3H]-HBT1 from His-tagged GluA2-AMPA (unknown origin) receptor expressed in CHO cells in presence of glutamate by scintillation proximity assay; type: cell-based
T2 sequence (P42262 whole entry): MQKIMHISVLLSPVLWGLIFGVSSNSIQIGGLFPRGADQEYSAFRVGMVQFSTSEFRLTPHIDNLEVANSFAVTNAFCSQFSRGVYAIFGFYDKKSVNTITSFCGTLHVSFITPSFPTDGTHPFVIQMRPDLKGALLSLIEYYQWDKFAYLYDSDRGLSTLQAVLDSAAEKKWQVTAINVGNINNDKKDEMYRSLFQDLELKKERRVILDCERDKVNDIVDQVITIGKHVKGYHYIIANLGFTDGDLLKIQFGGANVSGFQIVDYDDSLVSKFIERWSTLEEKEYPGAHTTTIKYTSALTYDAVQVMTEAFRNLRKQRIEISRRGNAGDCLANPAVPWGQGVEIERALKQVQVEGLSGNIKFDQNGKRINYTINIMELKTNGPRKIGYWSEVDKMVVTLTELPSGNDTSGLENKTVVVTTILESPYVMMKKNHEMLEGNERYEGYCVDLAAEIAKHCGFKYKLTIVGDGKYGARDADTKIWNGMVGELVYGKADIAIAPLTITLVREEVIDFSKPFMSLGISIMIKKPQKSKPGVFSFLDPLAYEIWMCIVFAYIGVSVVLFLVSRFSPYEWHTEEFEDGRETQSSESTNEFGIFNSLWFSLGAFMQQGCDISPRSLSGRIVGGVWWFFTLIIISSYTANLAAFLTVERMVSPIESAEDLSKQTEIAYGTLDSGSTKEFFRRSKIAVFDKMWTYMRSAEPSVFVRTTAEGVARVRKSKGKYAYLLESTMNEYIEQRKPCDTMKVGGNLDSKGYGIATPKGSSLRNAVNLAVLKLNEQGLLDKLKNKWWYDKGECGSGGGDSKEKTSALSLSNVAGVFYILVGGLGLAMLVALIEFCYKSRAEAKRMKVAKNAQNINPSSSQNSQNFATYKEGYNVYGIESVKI

[6] = target: T1, Glutamate NMDA receptor; GRIN1/GRIN2A; experiment: Positive allosteric modulator activity at GluN1a/GluN2A (unknown origin) expressed in CHO cells in presence of glutamate by Ca2+ influx assay; type: cell-based
[7] = target: Glutamate receptor ionotropic, NMDA 2A (Homo sapiens, UniProt Q05586+Q12879); experiment: Positive allosteric modulator activity at GluN2A receptor (unknown origin) by FLIPR assay
[8] = target: T2, Glutamate receptor 2; experiment: Positive allosteric modulator activity at GluA2-AMPA receptor (unknown origin) by FLIPR assay
[9] = target: Glutamate receptor ionotropic, NMDA 2A (Homo sapiens) (UniProt Q12879); experiment: Positive allosteric modulator activity at GluN2A receptor (unknown origin) assessed as maximum potentiation by FLIPR assay relative to control; settings: filed as positive allosteric modulator
[10] = target: T2, Glutamate receptor 2; experiment: Positive allosteric modulator activity at GluA2-AMPA receptor (unknown origin) assessed as maximum potentiation by FLIPR assay relative to control
[11] = target: T2, Glutamate receptor 2; experiment: Displacement of [3H]-HBT1 from GluA2-AMPA receptor (unknown origin) in presence of glutamate by scintillation proximity assay
[12] = species on record: Homo sapiens; experiment: Selectivity index, ratio of EC50 for GluN1a/GluN2D (unknown origin) expressed in CHO cells to EC50 for GluN1a/GluN2A (unknown origin) expressed in CHO cells; type: cell-based
[13] = AUC in rat at 10 mg/kg, po by LC-MS/MS analysis; type: ADME, organism-based; design: dose 10 mg/kg, route po; settings: in vivo
[14] = Cmax in rat at 1 mg/kg, iv by LC-MS/MS analysis; type: ADME, organism-based; design: dose 1 mg/kg, route iv; settings: in vivo
[15] = Drug concentration in rat plasma at 3 mg/kg, po after 0.5 hrs by LC-MS/MS analysis; type: ADME, organism-based
[16] = species on record: Homo sapiens; experiment: Selectivity index, ratio of EC50 for GluN1a/GluN2B (unknown origin) expressed in CHO cells to EC50 for GluN1a/GluN2A (unknown origin) expressed in CHO cells; type: cell-based
[17] = test system: CHO; experiment: Positive allosteric modulator activity at GluN1a/GluN2B (unknown origin) expressed in CHO cells at 30 uM in presence of glutamate by Ca2+ influx assay relative to control; type: cell-based; settings: Homo sapiens
[18] = target: T3, Ionotropic glutamate receptor NMDA 1/2C (Homo sapiens, UniProt Q05586+Q14957); experiment: Positive allosteric modulator activity at GluN1a/GluN2C (unknown origin) expressed in CHO cells at 30 uM in presence of glutamate by Ca2+ influx assay relative to control; type: cell-based; settings: filed as positive allosteric modulator
[19] = Drug concentration in rat brain at 3 mg/kg, po after 0.5 hrs by LC-MS/MS analysis; type: ADME, organism-based; settings: read-out: Ct
[20] = Drug concentration in rat brain at 3 mg/kg, po after 2 hrs by LC-MS/MS analysis; type: ADME, organism-based; settings: read-out: Ct
[21] = Oral bioavailability in rat at 10 mg/kg by LC-MS/MS analysis; type: ADME, organism-based; settings: in vivo
[22] = target: Ionotropic glutamate receptor NMDA 1/2D (Homo sapiens, UniProt O15399+Q05586); experiment: Positive allosteric modulator activity at GluN1a/GluN2D (unknown origin) expressed in CHO cells in presence of glutamate by Ca2+ influx assay; type: cell-based
[23] = species on record: Homo sapiens; experiment: Selectivity index, ratio of EC50 for GluN1a/GluN2C (unknown origin) expressed in CHO cells to EC50 for GluN1a/GluN2A (unknown origin) expressed in CHO cells; type: cell-based
[24] = Drug concentration in rat brain at 3 mg/kg, po after 1 hrs by LC-MS/MS analysis; type: ADME, organism-based; settings: read-out: Ct
[25] = target: Ionotropic glutamate receptor NMDA 1/2D (Homo sapiens) (UniProt Q05586+O15399); experiment: Positive allosteric modulator activity at GluN1a/GluN2D (unknown origin) expressed in CHO cells at 30 uM in presence of glutamate by Ca2+ influx assay relative to control; type: cell-based; settings: filed as positive allosteric modulator
[26] = Volume of distribution at steady state in rat at 1 mg/kg, iv by LC-MS/MS analysis; type: ADME, organism-based; settings: in vivo, read-out: Vdss
[27] = target: T3, Ionotropic glutamate receptor NMDA 1/2C; experiment: Positive allosteric modulator activity at GluN1a/GluN2C (unknown origin) expressed in CHO cells in presence of glutamate by Ca2+ influx assay; type: cell-based
[28] = Ratio of drug concentration in brain to plasma at 3 mg/kg, po after 1 hr by LC-MS/MS analysis; type: ADME, organism-based; settings: rat, brain and plasma, read-out: BPR
[29] = Drug concentration in rat plasma at 3 mg/kg, po after 2 hrs by LC-MS/MS analysis; type: ADME, organism-based
[30] = MRT in rat at 10 mg/kg, po by LC-MS/MS analysis; type: ADME, organism-based; settings: in vivo
[31] = test system: Rattus norvegicus; experiment: Induction of LTP enhancement in Sprague-Dawley rat assessed as increase in LTP enhancement in hippocampal slices at 10 mg/kg, po; type: functional, organism-based
[32] = Ratio of drug concentration in brain to plasma at 3 mg/kg, po after 2 hr by LC-MS/MS analysis; type: ADME, organism-based; settings: rat, brain and plasma, read-out: BPR
[33] = Drug concentration in rat plasma at 3 mg/kg, po after 1 hrs by LC-MS/MS analysis; type: ADME, organism-based
[34] = Ratio of drug concentration in brain to plasma at 3 mg/kg, po after 0.5 hr by LC-MS/MS analysis; type: ADME, organism-based; settings: rat, brain and plasma, read-out: BPR
[35] = Total clearance in rat at 1 mg/kg, iv by LC-MS/MS analysis; type: ADME, organism-based; settings: in vivo
[36] = filed as positive allosteric modulator

- logD [1]: 2.83
- %max [2, 36]: 420%
- microsomal CLint at 1 µM [3]: 37 µL/min/mg
- microsomal CLint at 1 µM [4]: 91 µL/min/mg
- IC50 [5]: 22 µM
- EC50 [6]: 0.16 µM
Compound: CCN(Cc1cc2c(=O)n(CCC#N)cc(C)n2n1)c1ccc(F)cc1

- logD [1]: 1.88
- %max [2, 36]: 220%
- IC50 [5]: > 30 µM
- EC50 [6]: 2 µM
Compound: Cc1cn(CCC#N)c(=O)c2cc(Cn3nc(C(F)F)cc3Cl)nn12

- logD [1]: 2.16
- %max [2, 36]: 160%
- microsomal CLint at 1 µM [4]: 1 µL/min/mg
- IC50 [5]: > 30 µM
- EC50 [6]: 1.5 µM
Compound: Cc1cn(CCC#N)c(=O)c2cc(Cn3nc(Br)cc3Cl)nn12

- EC50 [7]: 0.011 µM
- EC50 [8]: 24 µM
- %max [9]: 416%
- %max ([10]; BLD = below limit of detection): Bld
- IC50 [11]: 0.88 µM
Compound: N#C[C@H]1C[C@H]1c1c(C(F)(F)F)sc2nc(Cn3nc(C(F)(F)F)cc3Cl)cc(=O)n12

- logD [1]: 3.34
- %max [2, 36]: 410%
- IC50 [5]: > 30 µM
- EC50 [6]: 4.4 µM
Compound: CCc1cn(CCC#N)c(=O)c2sc(CN(CC)c3ccc(F)cc3)cc12

Compound: Cc1cn(CCC#N)c(=O)c2cc(Cn3nc(Cl)cc3Cl)nn12
- logD [1]: 2.07
- %max [2]: < 150%
- microsomal CLint at 1 µM [4]: 13 µL/min/mg
- IC50 [5]: > 30 µM
- EC50 [6]: > 30 µM

- logD [1]: 2.32
- %max [2, 36]: 420%
- microsomal CLint at 1 µM [4]: 7 µL/min/mg
- IC50 [5]: 19 µM
Compound: Cc1cn(CCC#N)c(=O)c2cc(Cn3nc(C(F)(F)F)cc3Cl)nn12

- EC50 [7]: 0.039 µM
- EC50 [8]: > 30 µM
- %max [9]: 471%
- %max [10]: 61%
- IC50 [11]: 0.38 µM
Compound: N#C[C@H]1C[C@H]1c1c(Cl)ccc2nc(Cn3nc(C(F)(F)F)cc3Cl)cc(=O)n12

Compound: Cc1cc(Cl)n(Cc2cc3c(=O)n(CCC#N)cc(C)n3n2)n1
- logD [1]: 1.84
- %max [2]: < 150%
- microsomal CLint at 1 µM [3]: 8 µL/min/mg
- microsomal CLint at 1 µM [4]: 10 µL/min/mg
- IC50 [5]: > 30 µM

- logD [1]: 2.95
- %max [2, 36]: 440%
- IC50 [5]: 0.61 µM
- EC50 [6]: 0.6 µM
Compound: CCN(Cc1cc2cc(C)n(CCC#N)c(=O)c2s1)c1ccc(F)cc1

- logD [1]: 2.06
- EC50 [7]: > 30 µM
- EC50 [8]: > 30 µM
- %max [9]: 270%
- %max ([10]; BLD = below limit of detection): Bld
- IC50 [11]: 1.2 µM
Compound: CCN(Cc1ccc(C(=O)N2CCC[C@@H]2C#N)s1)c1ccc(F)cc1

- logD [1]: 2.45
- %max [2, 36]: 420%
- IC50 [5]: 22 µM
- EC50 [6]: 5.2 µM
Compound: CCN(Cc1cc2c(=O)n(CCC#N)ccn2n1)c1ccc(F)cc1

- logD [1]: 2.92
- %max [2, 36]: 320%
- IC50 [5]: 0.61 µM
- EC50 [6]: > 30 µM
Compound: CCN(Cc1cc2c(=O)n(CCC#N)ccc2s1)c1ccc(F)cc1

- logD [1]: 2.68
- %max [2, 36]: 450%
- IC50 [5]: > 30 µM
- EC50 [6]: 2.3 µM
Compound: CCN(Cc1cc2ccn(CCC#N)c(=O)c2s1)c1ccc(F)cc1

- logD [1]: 3.01
- %max [2, 36]: 480%
- IC50 [5]: > 30 µM
- EC50 [6]: 0.18 µM
Compound: CCN(Cc1cc2c(C)cn(CCC#N)c(=O)c2s1)c1ccc(F)cc1

Compound: CCN(Cc1cc2ccn(CC#N)c(=O)c2s1)c1ccc(F)cc1
- logD [1]: 2.63
- %max [2, 36]: 230%
- IC50 [5]: > 30 µM
- EC50 [6]: > 30 µM

- logD [1]: 2.06
- AUC [13]: 9140 ng·h/mL
- Cmax [14]: 1910 ng/mL
- concentration at 0.5 h [15]: 523 ng/mL
- %max [2, 36]: 350%
- %max [18]: 200%
- concentration at 0.5 h [19]: 307 ng/g
- concentration at 2 h [20]: 146 ng/g
- bioavailability [21]: 21.4%
- EC50 [22]: > 30 µM
- concentration at 1 h [24]: 187 ng/g
- microsomal CLint at 1 µM [3]: 33 µL/min/mg
- %max [25]: 260%
- Vd [26]: 0.657 L/kg
- EC50 [27]: > 30 µM
- Kp at 1 h [28]: 0.47
- concentration at 2 h [29]: 286 ng/mL
- MRT [30]: 3.5 h
- IC50 [5]: > 30 µM
- Kp at 2 h [32]: 0.51
- concentration at 1 h [33]: 397 ng/mL
- Kp at 0.5 h [34]: 0.59
- clearance [35]: 3.92 mL/min/kg
- EC50 [6]: 0.51 µM
Compound: Cc1cn([C@H](C)CC#N)c(=O)c2cc(Cn3nc(C(F)F)cc3Cl)nn12
- Ratio EC50 [12]: 19
- Ratio EC50 [16]: > 59
- %max [17]: < 150%
- Ratio EC50 [23]: 19
- Activity [31]: Active

- logD [1]: 2.06
- %max [2]: < 150%
- IC50 [5]: > 30 µM
Compound: Cc1cn([C@@H](C)CC#N)c(=O)c2cc(Cn3nc(C(F)F)cc3Cl)nn12

Reference: ChEMBL document CHEMBL5143566, “Discovery of Pyrazolo[1,5-a]pyrazin-4-ones as Potent and Brain Penetrant GluN2A-Selective Positive Allosteric Modulators Reducing AMPA Receptor Binding Activity” (Bioorg Med Chem, 2022)
